Laboratory results: ChEMBL document CHEMBL4417631, “Oral peptide inhibitors of interleukin-23 receptor and their use to treat inflammatory bowel diseases” (2017)
*1 amine or outer side, *2 acyl side, *3 side chain or, on linkers, in order; H or OH if unused. Where a SMILES comes first, the peptide text is derived from it. Bridges are numbered along the chain shown (N, C = ends). [ ]: non-standard residue; d: D form. Abu(4-yl) = O=C([C@H](CC[*:3])N[*:1])[*:2]; Pen = CC(C)(S)[C@H](N)C(=O)O; hLeu = CC(C)CC[C@H](N)C(=O)O

Columns and labels:
[1] = Half life in simulated intestinal fluid at 20 uM by LC-MS/MS analysis; format: ADME
[2] = target: T1, Interleukin-23 receptor (Homo sapiens, UniProt Q5VWK5); assay: Inhibition of interleukin-23 binding to human interleukin-23 receptor incubated for 2 hrs by competitive binding ELISA
T1 sequence (Q5VWK5 whole entry): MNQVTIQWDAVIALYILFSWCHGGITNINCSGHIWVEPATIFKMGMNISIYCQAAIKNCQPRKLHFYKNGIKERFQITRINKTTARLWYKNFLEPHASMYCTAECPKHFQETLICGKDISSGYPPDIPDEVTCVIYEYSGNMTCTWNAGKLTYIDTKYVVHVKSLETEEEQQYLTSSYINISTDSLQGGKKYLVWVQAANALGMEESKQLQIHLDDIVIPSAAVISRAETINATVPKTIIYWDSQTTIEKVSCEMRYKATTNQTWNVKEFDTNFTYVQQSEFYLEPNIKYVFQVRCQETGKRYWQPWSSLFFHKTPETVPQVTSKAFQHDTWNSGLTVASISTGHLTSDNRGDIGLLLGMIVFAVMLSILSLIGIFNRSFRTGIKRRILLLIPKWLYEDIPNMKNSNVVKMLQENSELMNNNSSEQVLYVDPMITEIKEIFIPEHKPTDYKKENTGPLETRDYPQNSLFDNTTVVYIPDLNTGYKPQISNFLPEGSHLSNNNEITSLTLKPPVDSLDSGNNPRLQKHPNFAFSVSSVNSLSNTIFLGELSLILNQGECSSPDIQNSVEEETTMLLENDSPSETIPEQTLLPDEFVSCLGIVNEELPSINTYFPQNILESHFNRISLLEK

Row | half-life at 20 µM [1] [h] | IC50 [2] [nM] | Compound
1 | < 1 | > 1000 | CC(=O)N[C@H]1CCSC(C)(C)[C@@H](C(=O)N[C@@H](Cc2ccc(O)cc2)C(=O)N[C@@H](Cc2c[nH]c3ccccc23)C(=O)N[C@@H](CCC(C)C)C(=O)N[C@@H](CCC(=O)O)C(=O)N[C@@H](CC(N)=O)C(=O)NCC(N)=O)NC(=O)[C@H](CCC(N)=O)NC(=O)[C@H](Cc2c[nH]c3ccccc23)NC(=O)[C@H]([C@@H](C)O)NC(=O)[C@H](CCC(N)=O)NC1=O (Ac-[Abu(4-yl)]QTWQ[Pen]YW[hLeu]ENG-NH2; thioether 1-6)
2 | < 1 | 1000 to 10000 | CC(=O)N[C@@H](CS)C(=O)N[C@@H](CCC(N)=O)C(=O)N[C@H](C(=O)N[C@@H](Cc1c[nH]c2ccccc12)C(=O)N[C@@H](CCC(N)=O)C(=O)N[C@H](C(=O)N[C@@H](Cc1ccc(O)cc1)C(=O)N[C@@H](Cc1c[nH]c2ccccc12)C(=O)N[C@H](CC(N)=O)C(=O)N[C@@H](CCC(=O)O)C(=O)N[C@@H](CC(N)=O)C(=O)NCC(N)=O)C(C)(C)S)[C@@H](C)O
3 | 3 to 6 | 1000 to 10000 | CC(=O)N[C@H](C(=O)N[C@@H](CCC(N)=O)C(=O)N[C@H](C(=O)N[C@@H](Cc1c[nH]c2ccccc12)C(=O)N[C@@H](CCC(N)=O)C(=O)N[C@H](C(=O)N[C@@H](Cc1ccc(O)cc1)C(=O)N[C@@H](Cc1c[nH]c2ccccc12)C(=O)N[C@H](CC(N)=O)C(=O)N[C@@H](CCC(=O)O)C(=O)N[C@@H](CC(N)=O)C(=O)NCC(N)=O)C(C)(C)S)[C@@H](C)O)C(C)(C)S
4 | 1 to 2 | > 1000 | CC(=O)N[C@H]1CCSC[C@H](C(=O)N[C@@H](Cc2ccc(O)cc2)C(=O)N[C@@H](Cc2c[nH]c3ccccc23)C(=O)N[C@@H](CCC(C)C)C(=O)N[C@@H](CCC(=O)O)C(=O)N[C@@H](CC(N)=O)C(=O)NCC(N)=O)NC(=O)[C@H](CCC(N)=O)NC(=O)[C@H](Cc2c[nH]c3ccccc23)NC(=O)[C@H]([C@@H](C)O)NC(=O)[C@H](CCC(N)=O)NC1=O
5 | < 1 | 100 to 1000 | CC(=O)NC[C@H](NC(=O)[C@H](CCCN)NC(=O)[C@H](Cc1c[nH]c2ccccc12)NC(=O)[C@H](Cc1ccc(OCCN)cc1)NC(=O)[C@@H]1CSCC[C@H](NC(C)=O)C(=O)N[C@@H](CCC(N)=O)C(=O)N[C@@H]([C@@H](C)O)C(=O)N[C@@H](Cc2c[nH]c3ccccc23)C(=O)N[C@@H](CCC(N)=O)C(=O)N1)C(=O)N[C@@H](CC(N)=O)C(=O)NCC(N)=O
6 | < 1 | 100 to 1000 | CC(=O)N[C@H]1CCSC[C@@H](C(=O)N[C@@H](Cc2ccc(OCCN)cc2)C(=O)N[C@@H](Cc2c[nH]c3ccccc23)C(=O)N[C@@H](CCCN)C(=O)N[C@@H](CN)C(=O)N[C@@H](CC(N)=O)C(=O)NCC(N)=O)NC(=O)[C@H](CCC(N)=O)NC(=O)[C@H](Cc2c[nH]c3ccccc23)NC(=O)[C@H]([C@@H](C)O)NC(=O)[C@H](CCC(N)=O)NC1=O
7 | 3 to 6 | > 1000 | COc1ccc(CC[C@H](NC(=O)[C@@H]2CSCC[C@H](NC(C)=O)C(=O)N[C@@H](CCC(N)=O)C(=O)N[C@@H]([C@@H](C)O)C(=O)N[C@@H](Cc3c[nH]c4ccccc34)C(=O)N[C@@H](CCC(N)=O)C(=O)N2)C(=O)N[C@@H](Cc2ccc3ccccc3c2)C(=O)N[C@@](C)(CCCCN)C(=O)N[C@@H](CCCCNC(C)=O)C(=O)N[C@@H](CC(N)=O)C(=O)NCC(N)=O)cc1OC
8 | 2 to 3 | > 30000 | CC(=O)N[C@H](C(=O)N[C@@H](CCC(N)=O)C(=O)N[C@H](C(=O)N[C@@H](Cc1c[nH]c2ccccc12)C(=O)N[C@@H](CCC(N)=O)C(=O)N[C@H](C(=O)N[C@@H](Cc1ccc(O)cc1)C(=O)N[C@@H](Cc1c[nH]c2ccccc12)C(=O)N(C)[C@@H](CCCNC(=N)N)C(=O)N[C@@H](CCC(=O)O)C(=O)N[C@@H](CC(N)=O)C(=O)NCC(N)=O)C(C)(C)S)[C@@H](C)O)C(C)(C)S
